Measured values: US20220062205A1, “TREATMENT OF GASTROINTESTINAL DISORDERS AND SYMPTOMS THEREOF” (Indiana University Research and Technology Corporation, priority 2018, published 2022)

How the values were obtained:
Format in all cases: in vivo, mouse
Winnie mice [1] = test: RNA sequencing of pooled distal colon; conditions: n=6, relative to control C57BL/6 mice
Method: The small molecular APE1/Ref-1 antagonist; APX3330, was administered via IP injections in Winnie mice at a dose of 25 mg/kg (30 G needle, max volume 200 μl) dissolved in Cremphore (2%) (Sigma-Aldrich): Ethanol (2%) in sterile water (96%). Mice received alternating IP injections twice a day with 12-hour intervals, over the course of two weeks during predominate intestinal inflammation. Winnie-sham treated mice received vehicle injections excluding APX3330 drugs. All mice were monitored, weighed and faecal pellets were collected over the course of treatment. Control C57BL/6, Winnie-sham treated and Winnie-APX3330 fresh colon tissues were collected and snap frozen into liquid nitrogen. Samples were then sent to the Australian Genome Research Facility (AGRF) where next generation sequencing (NGS) was completed. NGS will be carried out by removing 2-3 μg of RNA per sample (≥100 ng/μl). The integrity of the RNA will be assessed by a Bioanalyzer as samples are to have a RNA integrity number (RIN) value of ≥8.0. The RNA samples went through a DNase treatment ready for library preparation. […] Samples underwent quality and adapter trimming, alignment, quantification and normalization. […] Final data obtained from AGRF were analysed and interpreted to determine APE1/Ref-1 associated pathways.

Winnie mice [2] = test: Intestinal inflammation: faecal lipocalin (Lcn)-2 ELISA; conditions: day 14; mean±SEM, n=5
Method: The small molecular APE1/Ref-1 antagonist; APX3330, was administered via IP injections in Winnie mice at a dose of 25 mg/kg (30 G needle, max volume 200 μl) dissolved in Cremphore (2%) (Sigma-Aldrich): Ethanol (2%) in sterile water (96%). Mice received alternating IP injections twice a day with 12-hour intervals, over the course of two weeks during predominate intestinal inflammation. Winnie-sham treated mice received vehicle injections excluding APX3330 drugs. All mice were monitored, weighed and faecal pellets were collected over the course of treatment. Faecal lipocalin (Lcn)-2 ELISA kit (Abcam) were used to detect efficacy of APX3330 on levels of colonic inflammation. Faecal samples collected on day 14 of treatments from control C57BL/6, Winnie-Sham treated and Winnie-APX3330 treated mice were reconstituted in PBS-0.1 TWEEN 20 (100 mg/mL) to form a homogenous faecal suspension. Homogenous suspension was centrifuged for 10 minutes at 12000 RPM at 4° C. Lcn-2 were determined in the clear supernatants. All samples were repeated in duplicates for statistical value. […] Microplate reader capable of measuring absorbance at 450 nm, with the correction wavelength set at 540 nm was used to detect Lcn-2 protein (pg/mL) in faecal pellet supernatant.

Winnie mice [3] = test: Clinical symptoms (body weight, rectal prolapse, faecal water content) in Winnie mice treated with APX3330; conditions: for Daily Body Weight: mean, SEM in line below, in % (unit assumed)
Source text: In this Example, the murine model of IBD named Winnie, in which spontaneous chronic colitis results from a primary intestinal epithelial defect conferred by a mutation in the Muc2 mucin gene, was used to analyze the symptoms of IBD and the effects of treatment with APX3330. Although other models of chronic intestinal inflammation have been developed (e.g., IL-10 knockout), most of them are environment-dependent (attain inflammation only in the presence of pathogenic bacteria). Further, unlike other models, mild spontaneous inflammation in the colorectum is developed in all Winnie mice by 6 weeks of age (young adults) in pathogen-free conditions; it progresses over time and results in severe colitis by the age of 12-16 weeks. This is due to a thinner mucus layer allowing increased intestinal permeability and thus enhanced susceptibility to luminal toxins normally within the gut. In humans, Muc2 production and secretion are reduced leading to a thinner mucosal layer and increased intestinal permeability. Winnie mice (Win/Win) display symptoms of diarrhoea (not watery), ulcerations, rectal bleeding and pain at the acute stages of colitis similar to those in human IBD. The Winnie murine model of chronic colitis (12 w.o.; 15-35 g; n=24) were attained from Victoria University Werribee Animal Facility (Melbourne, Australia) to determine the effectiveness of APX3330 on mechanisms of oxidative stress. Treated Winnie mice were paralleled to a control C57BL/6 group (12 w.o.; 20-30 g; n=12) inclusive of female and male mice. All mice were acclimatized for 3 days prior to receiving in vivo intraperitoneal (IP) injections. All mice were housed at Western Centre for Health, Research and Education (WCHRE, Melbourne, Victoria, Australia) in a temperature-controlled environment with a 12-hour day/night cycle. All animals had free access to food and water with […] efforts made to minimize any suffering. All experimental procedures in this Example were conducted in agreement to the Australian National Health and Medical Research Council (NHMRC) guidelines and approved by Victorian University Animal Experimentation Ethic Committee (AEEC) under animal ethics AEETH 13/001 and AEC 17/016. The small molecular APE1/Ref-1 antagonist; APX3330, was administered via IP injections in Winnie mice at a dose of 25 mg/kg (30 G needle, max volume 200 μl) dissolved in Cremphore (2%) (Sigma-Aldrich): Ethanol (2%) in sterile water (96%). Mice received alternating IP injections twice a day with 12-hour intervals, over the course of two weeks during predominate intestinal inflammation. Winnie-sham treated mice received vehicle injections excluding APX3330 drugs. All mice were monitored, weighed and faecal pellets were collected over the course of treatment.

**Q.** Which results are given for `CCCCCCCCCC(=CC1=C(C)C(=O)C(OC)=C(OC)C1=O)C(=O)O` [APX3330]?
**A.** down regulation (fold change) of RNA expression of S100a8, Khdc1a, Lrg1, Retnlb, Nos2, Ido1 and REG3B (Winnie mice [1]): > 2; Lcn-2 faecal level (Winnie mice [2]): 36 ± 2.0 pg/mL; Daily Body Weight (Winnie mice [3]; Day 1, relative to initial weight, 25 mg/kg IP twice a day): 102; Daily Body Weight (Winnie mice [3]; Day 2, relative to initial weight, 25 mg/kg IP twice a day): 100; Daily Body Weight (Winnie mice [3]; Day 3, relative to initial weight, 25 mg/kg IP twice a day): 101; Daily Body Weight (Winnie mice [3]; Day 4, relative to initial weight, 25 mg/kg IP twice a day): 101; Daily Body Weight (Winnie mice [3]; Day 5, relative to initial weight, 25 mg/kg IP twice a day): 100; Daily Body Weight (Winnie mice [3]; Day 6, relative to initial weight, 25 mg/kg IP twice a day): 100; Daily Body Weight (Winnie mice [3]; Day 7, relative to initial weight, 25 mg/kg IP twice a day): 98; Daily Body Weight (Winnie mice [3]; Day 8, relative to initial weight, 25 mg/kg IP twice a day): 98; Daily Body Weight (Winnie mice [3]; Day 9, relative to initial weight, 25 mg/kg IP twice a day): 98; Daily Body Weight (Winnie mice [3]; Day 10, relative to initial weight, 25 mg/kg IP twice a day): 99; Daily Body Weight (Winnie mice [3]; Day 11, relative to initial weight, 25 mg/kg IP twice a day): 99; Daily Body Weight (Winnie mice [3]; Day 12, relative to initial weight, 25 mg/kg IP twice a day): 99; Daily Body Weight (Winnie mice [3]; Day 13, relative to initial weight, 25 mg/kg IP twice a day): 99; rectal prolapse, edema and bleeding (Winnie mice [3]; by day 14 of treatments, 25 mg/kg IP twice a day): reduced; faecal water content (Winnie mice [3]; day 14, 25 mg/kg IP twice a day, mean±SEM, n=7): 73.2±2.1%
